Source: patent EP0298385A2, “Cyctostatic anthracyclin derivatives” (BEHRINGWERKE Aktiengesellschaft, priority 1987, dated 1989)
In brackets after ≈: the same amount, converted by molar mass. Where two headings read alike, the source gives them in different places.

Assays:
L1210 Leukämiezellen = assay: Colony formation of L1210 leukemia cells in soft agar (cytotoxicity in vitro); format: cell-based, Maus; details: for IC50: Mus musculus
Text: Die zytostatische Wirksamkeit der erfindungsgemäßen Verbindungen wurde anhand von L1210 Leukämiezellen der Maus getestet. Hierzu wurde die Koloniebildung von L1210 Leukämiezellen in Agarplatten herangezogen. Diese Methode dient zum Nachweis des Einflusses der Testsubstanzen auf das Wachstumsverhalten der Zellen über 1 Stunde oder über mehrere Generationen. Bei einer Zellzykluszeit von 10-12 Stunden werden dabei in der Testzeit von 7 Tagen etwa 14 aufeinanderfolgende Generationen beobachtet. Die erfindungsgemäßen zytostatisch wirksamen Substanzen bewirken in diesem Test eine Reduktion der zu beobachtenden Koloniezahl gegenüber einer unbehandelten Kontrollprobe.
Verfahrensweise zur Ermittlung der Koloniebildung von L1210 Leukämiezellen in Soft-Agar
500 Leukämiezellen pro Platte wurden mit unterschiedlichen Konzentrationen der Testsubstanz 1 Stunde bei 37°C inkubiert. Anschließend wurden die Zellen zweimal mit McCoy5A-Medium gewaschen und schließlich in Petrischalen nach Zugabe von 0,3 % Agar ausgegossen. Kontrollen wurden lediglich mit frischem Medium inkubiert. Anstelle der einstündigen Inkubation wurden in manchen Fällen unterschiedliche Konzentrationen der Testsubstanzen der oberen Agarschicht zugemischt, um so eine kontinuierliche Exposition der Zellen über die gesamte Inkubationszeit zu erreichen. Nach Erstarren des Agars wurden die Platten im Brutschrank 7 Tage bei 37°C inkubiert (5 Vol. -% CO₂, 95 % relative Luftfeuchtigkeit). Anschließend wurde die Zahl der entstandenen Kolonien mit einem Durchmesser von mehr als 60 µm gezählt. Die Ergebnisse wurden angegeben als Koloniezahl in behandelten Agarplatten in Prozent der unbehandelten Kontrolle. Aus der so erhaltenen Dosiswirkungskurve wurde die IC₅₀ als Maß für die Wirksamkeit der Substanz ermittelt. Die Ergebnisse für die hier beschriebenen Verbindungen im Vergleich zu Adriamycin sind in der nachfolgenden Tabelle 1 zusammengefaßt.
Die Struktur der hergestellten Verbindungen wurde mittels ¹H-NMR- Spektroskopie, UV-Spektroskopie und HPLC-Technik ermittelt. Der Verlauf der Reaktionen wurde, soweit möglich, dünnschichtchromatographisch auf Kieselgel-Fertigplatten verfolgt. Die Ergebnisse der Zytotoxizitäts-Testung gegen L1210-Zellen in vitro sind in Tabelle 1 zusammengefaßt. Tabelle 1

[1] = Stability / hydrolysis of the spacer-bearing anthracyclines in phosphate-buffered saline, HPLC analysis; format: physicochemical
Method: Die jeweilige Verbindung wurde bei einer Konzentration von 1 mg/ml in Acetonitril gelöst und mit Phosphat-gepufferter Kochsalzlösung pH 7.2 im Volumenverhältnis 1:100 verdünnt, wobei eine Konzentration von jeweils 10 µg/ml erhalten wurde. Diese Lösungen wurden jeweils bei 37 °C im Dunkeln inkubiert und 20 µl-Aliquote wurden nach definierten Zeiten mittels der HPLC-Technik untersucht. Die Stabilitäten dieser Verbindungen sind in Fig. 1 graphisch dargestellt.
Verbindung 10 wurde, wie vorstehend beschrieben, unrersucht und mittels HPLC-Technik analysiert.
Verbindung 12 wurde analog zu Verbindung 10 hydrolysiert, wobei jedoch ein pH-Wert von 7,4 verwendet wurde.

[2] = 1 h incubation at 37°C, then washed, colonies counted after 7 days
[3] = continuous exposure in agar, 7 days at 37°C, not differentiated by possible hydrolysis products (footnote a)
[4] = 10 µg/ml in phosphate-buffered saline pH 7.2, 37 °C, dark, releases β-Rhodomycin-I directly and via an intermediate

Hydrolyse [1, 4]	Hydrolyse ([1]; as for Verbindung 10 but pH 7,4, 37 °C)	Compound	IC₅₀-Werte gegenüber L1210-Zellen in vitro, 1h-Inkubation (L1210 Leukämiezellen; [2])	IC₅₀-Werte gegenüber L1210-Zellen in vitro, Dauerinkubation (L1210 Leukämiezellen; [3])	IC50 (L1210 Leukämiezellen; L1210, 168 h, continuous exposure in agar, 7 days at 37°C, not differentiated by possible hydrolysis products (footnote a), read-out: IC₅₀-Werte gegenüber L1210-Zellen in vitro, Dauerinkubation)	IC50 (L1210 Leukämiezellen; L1210, 1 h incubation at 37°C, then washed, colonies counted after 7 days, read-out: IC₅₀-Werte gegenüber L1210-Zellen in vitro, 1h-Inkubation)
		CC[C@@]1(O)C[C@H](O[C@H]2C[C@H](N(C)C)[C@H](O[C@H]3C[C@@H]4O[C@H]5CC(=O)[C@H](C)O[C@H]5O[C@@H]4[C@H](C)O3)[C@H](C)O2)c2c(O)c3c(c(O)c2[C@H]1O[C@H]1C[C@H](N(C)C)[C@H](O)[C@H](C)O1)C(=O)c1cccc(O)c1C3=O [Cytorhodin-S, reference compound]	0,013 µg/ml	0,003 µg/ml		
		COc1cccc2c1C(=O)c1c(O)c3c(c(O)c1C2=O)C[C@@](O)(C(=O)CO)C[C@@H]3O[C@H]1C[C@H](N)[C@H](O)[C@H](C)O1 [Adriamycin, reference compound]			0.02 µg/mL (≈ 0.0368 µM)	0.04 µg/mL (≈ 0.0736 µM)
analoges Hydrolyseverhalten		CC[C@@]1(O)C[C@H](O[C@H]2C[C@H](N(C)C)[C@H](OC(=O)CCN3C(=O)C=CC3=O)[C@H](C)O2)c2c(O)c3c(c(O)c2[C@H]1O)C(=O)c1cccc(O)c1C3=O [Verbindung 11, 7-O-[4′-O-(3-Maleimidopropionyl)-α-L-rhodosaminyl]-βrhodomycinon]	0,11 µg/ml	0,028 µg/ml		
		CC[C@@]1(O)C[C@H](O[C@H]2C[C@H](N(C)C)[C@H](O)[C@H](C)O2)c2c(O)c3c(c(O)c2[C@H]1O)C(=O)c1cccc(O)c1C3=O [β-Rhodomycin-I, 7-O-(α-L-Rhodosaminyl)-β-rhodomycinon, reference compound]	0,05 µg/ml	0,022 µg/ml		
	analoges Hydrolyseverhalten	4˝-O-(4-Maleimidobenzoyl)-cytorhodin-S [Verbindung 12]	0,0095 µg/ml	0,0028 µg/ml		
analoges Hydrolyseverhalten		CC[C@@]1(O)C[C@H](O[C@H]2C[C@H](N(C)C)[C@H](OC(=O)c3ccc(N4C(=O)C=CC4=O)cc3)[C@H](C)O2)c2c(O)c3c(c(O)c2[C@H]1O)C(=O)c1cccc(O)c1C3=O [Verbindung 8]	0,5 µg/ml	0,11 µg/ml		

Compound	Hydrolyse [1, 4]	Hydrolyse ([1]; as for Verbindung 10 but pH 7,4, 37 °C)	IC₅₀-Werte gegenüber L1210-Zellen in vitro, 1h-Inkubation (L1210 Leukämiezellen; [2])	IC₅₀-Werte gegenüber L1210-Zellen in vitro, Dauerinkubation (L1210 Leukämiezellen; [3])	IC50 (L1210 Leukämiezellen; L1210, 168 h, continuous exposure in agar, 7 days at 37°C, not differentiated by possible hydrolysis products (footnote a), read-out: IC₅₀-Werte gegenüber L1210-Zellen in vitro, Dauerinkubation)	IC50 (L1210 Leukämiezellen; L1210, 1 h incubation at 37°C, then washed, colonies counted after 7 days, read-out: IC₅₀-Werte gegenüber L1210-Zellen in vitro, 1h-Inkubation)
CCC1(O)CC(OC2CC(N(C)C)C(OC(=O)c3ccc(N4C(=O)C=CC4=O)cc3OC(C)=O)C(C)O2)c2c(O)c3c(c(O)c2C1O)C(=O)c1cccc(O)c1C3=O [Verbindung 10, 7-O-[4′-O-(2-Acetoxy-4-maleimidobenzoyl)-α-L-rhodosaminyl]-β-rhodomycinon]	hydrolytisch zersetzt					
